Measurements reported in patent US20190008864A1, “PHARMACEUTICAL COMPOSITION CONTAINING GPR119 LIGAND AS EFFECTIVE INGREDIENT FOR PREVENTING OR TREATING NON-ALCOHOLIC STEATOHEPATITIS” (PHARMEDIX.CO., LTD., priority 2014, published 2019).

How the values were obtained:
SREBP-1c = test: SREBP-1C expression in HepG2 under high glucose/insulin with GPR119 ligand plus AMPK or PKA inhibitor; assay type: cell-based, human
Protocol: (§1) Sodium dodecyl sulfate-polyacrylamide gel electrophoresis (SDS-PAGE) was carried out by means of a gel electrophoresis device (Mighty Small SE 250, Hoefer Scientific Instruments, San Francisco) according to a method by Laemmli (UK, Nature 227, 680-685, 1970). Each of cell lysate fractions was diluted with a buffer solution for sample dilution [63 mM Tris (pH. 6.8), 10% glycerol, 2% SDS, 0.0013% bromophenol blue, and 5% β-mercaptoethanol], and then electrophoresed on a 8% or 10% gel in an electrode buffer solution (1 l of the solution contained 15 g of Tris, 72 g of glycerin, and 5 g of SDS). […] Whether total protein contents in samples are the same is determined using anti-β-actin and anti-LaminA/C antibodies. Changes in protein expression amounts were determined by measuring the intensities of chemiluminescence signals on the blot by means of densitometry. […] Each lane was calculated using AlphaEase™ version 5.5 software and background intensity was removed from the calculated values. […]
An experiment therefor was performed as follows. […] Protein expression change was measured using the western blotting method of the method D.

[1] = tested on: mouse liver tissue and hepatocyte line; test: Summary statement: mouse liver tissue and hepatocyte line treated with the two GPR119 ligands; assay type: cell-based
[2] = tested on: fatty liver model induced by a high-fat diet; test: Fatty liver model induced by high-fat diet; assay type: in vivo, C57BL/6J mice; conditions: animal models fed with a high-fat diet
Description: In the present invention, a high fat diet (HFD: 60% fat calories, Research diets, D12492, US) was used as an obesity induction diet.
Six-week-old male C57BL/6J mice (Central Lab. Animal Inc., Seoul, Korea) were acclimated to an experimental environment for one week while being fed solid food, and then randomly divided into a control group and an experimental group for a high-fat diet using a randomized block design. The animal groups were fed for 12 weeks, and thus, fatty liver animal models were established. Fatty liver development was determined according to blood biochemical and histochemical analysis methods. The mice were orally fed with the high-fat diet only for six weeks, and in combination with a GPR119 ligand (10 mg/kg) suspended in 40% PEG400 once a day for five days every week. Choline-deficient, amino acid-fixed high-fat diet steatohepatitis models were prepared by feeding six-week-old male C57BL/6J mice (Central Lab. Animal Inc., Seoul) with a diet containing 60 kcal fat and 0.1% methionine for four weeks. After terminating the experiment, experimental animals fasted for 12 hours or more. Subsequently, blood, liver, and adipose tissues in intestines (epididymal fat, kidney-surrounding fat) were collected from the animals that had been anesthetized with diethyl ether and then washed with a 0.1 M phosphate buffered saline (pH 7.4), followed by being weighed. Blood collected from abdominal aortas was centrifuged at 3000 rpm for 20 minutes using SST tubes to separate serum.
A total cholesterol concentration and a total glucose concentration in serum from each of the aforementioned experimental animals raised for 12 weeks were measured as follows. Each of the total cholesterol concentration and the total glucose concentration in serum was measured twice by means of a commercial measurement kit (Bio Clinical Systems). The amount of alanine aminotransferase (ALT) in blood used as a liver function index was measured by means of a commercial analysis kit (Bio Clinical Systems, Korea).
The collected liver tissues were fixed with a 10% neutral formalin solution and then subjected to a common fixation procedure and dehydration process, followed by embedding the same in paraffin. The embedded tissues were sectioned to a thickness of 4 μm and stained with H&E. The stained tissues were observed by means of an optical microscope.
A predetermined amount of each of the liver tissues was homogenized in liquid nitrogen and a cell lysis buffer in a mortar, and then a lysed tissue solution was transferred to a new tube, followed by vortexing. […] A middle layer of the centrifuged solution was collected and then subjected to protein quantification by the Bradford assay. […] Expression changes of FAS and SREBP-1c proteins were measured by western blotting. […]

SCD-1 mRNA = SCD-1 mRNA expression after T0901317 treatment, HepG2 (real time PCR); assay type: cell-based, human; conditions: 10 μM T0901317 alone
Protocol: (§2) A 6-well plate was inoculated with HepG2 (ATCC, US), as a human hepatocyte line, and cultured until confluence in a DMEM medium containing 1% penicillin-streptomycin (Hyclone, US) and 10% fetal bovine serum (Hyclone, US) in a 5% CO2 incubator at 37° C. The medium containing 10% fetal bovine serum of the hepatocyte line grown to confluence was replaced by a medium not containing FBS. The cell line was additionally cultured for 18 hours and used as a sample for an experiment.
(§3) 1 ml of a TRIzol solution was added to each of cell samples to lyse the cells. Subsequently, centrifugation was carried out at 4° C. and 12,000×g for 10 minutes. […]
(§4) A supernatant was transferred to a new tube and then isopropanol was added thereto in the same amount as the supernatant. […] The concentration of an extracted RNA sample was measured at wavelengths of 260 nm and 280 nm by means of a UV/VIS spectrum analyzer (Nanodrop, Thermo, US) and cDNAs were synthesized therefrom using an RT kit. […]
(§5) A medium containing the GPR119 ligand (MBX-2982, GSK-1292263A) was added to a human hepatocyte line (HepG2) cultured as in the method C and, 30 minutes later, the cell line was treated with 10 μM T0901317 for nine hours. […] To investigate mRNA expression change in SCD-1 and FAS, RNAs were isolated and cDNAs were synthesized therefrom as in the method E. mRNA expression levels were measured using real time-PCR as in the method F.

SREBP-1c protein [3] = test: SREBP-1c expression after T0901317 treatment, HepG2 (western blot); assay type: cell-based, human; conditions: 10 μM T0901317 alone, nine hours, compared to no treatment
Protocol: as §2
as §1, with “1970).” for “1970). Each of cell lysate fractions was diluted with a buffer solution for sample dilution [63 mM Tris (pH. 6.8), 10% glycerol, 2% SDS, 0.0013% bromophenol blue, and 5% β-mercaptoethanol], and then electrophoresed on a 8% or 10% gel in an electrode buffer solution (1 l of the solution contained 15 g of Tris, 72 g of glycerin, and 5 g of SDS).”

FAS mRNA = FAS mRNA expression after T0901317 treatment, HepG2 (real time PCR); assay type: cell-based, human; conditions: 10 μM T0901317 alone
Protocol: as §2, §3, §4, §5

SREBP-1c protein [4] = test: SREBP-1c expression after T0901317 treatment, primary hepatocytes (western blot); assay type: cell-based, mouse; conditions: 10 μM T0901317 alone, nine hours, compared to no treatment
Protocol: Liver cells were collected from male C57BL/6 mice (Central Lab. Animal Inc., Seoul) according to a method by Seglen et al. (Exp Cell Res., 82, pp 391-398, 1973). Each C57BL/6 mouse was anesthetized and then the abdomen thereof was incised. Subsequently, the hepatic portal vein was intubated and a gas mixture of 5% CO2 and 95% O2 was insufflated thereinto. A Ca^2+ and Mg^2+-free Hank's balanced salt solution at 37° C. was flowed into the tube to remove blood in the liver. Subsequently, a 0.1% collagenase type IV (Sigma, US) solution was flowed thereinto. The liver tissue was removed from the body, and then prepared into a hepatocyte suspension. The prepared hepatocyte suspension was centrifuged at 50×g for two minutes. […]
Sodium dodecyl sulfate-polyacrylamide gel electrophoresis (SDS-PAGE) was carried out by means of a gel electrophoresis device (Mighty Small SE 250, Hoefer Scientific Instruments, San Francisco) according to a method by Laemmli (UK, Nature 227, 680-685, 1970). […] Whether total protein contents in samples are the same is determined using anti-β-actin and anti-LaminA/C antibodies. Changes in protein expression amounts were determined by measuring the intensities of chemiluminescence signals on the blot by means of densitometry. […] Each lane was calculated using AlphaEase™ version 5.5 software and background intensity was removed from the calculated values. […]

SMILES: O=S(=O)(NCCNC/C=C/c1ccc(Br)cc1)c1cccc2cnccc12 [H-89]
- function of the GPR119 ligand affecting SREBP-1C upon PKA inhibitor treatment (SREBP-1c; 3 μM GPR119 ligand plus H-89): not affected

SMILES: CC(C)c1noc(N2CCC(COc3ccc(-c4ccc(S(C)(=O)=O)cc4)nc3)CC2)n1 [GSK1292263, 3-isopropyl-5-(4-(((6-(4-(methylsulfonyl)phenyl)pyridin-3-yl)oxy)methyl)piperidin-1-yl)-1,2,4-oxadiazole]
- activity of SREBP-1c [1]: inhibited
- expression of GPR119 [1]: increased
- expression of acetyl CoA carboxylase (ACC) [1]: inhibited
- expression of fatty acid synthase (FAS) [1]: inhibited
- expression of stearoyl-CoA desaturase (SCD) [1]: inhibited
- fatty liver development [2]: completely inhibited

SMILES: O=S(=O)(c1ccccc1)N(CC(F)(F)F)c1ccc(C(O)(C(F)(F)F)C(F)(F)F)cc1 [T0901317, N-(2,2,2-Trifluoroethyl)-N-[4-[2,2,2-trifluoro-1-hydroxy-1-(trifluoromethyl)ethyl]phenyl]benzenesulfonamide]
- mRNA expression level of SCD-1 (SCD-1 mRNA): increased
- expression level of SREBP-1c (SREBP-1c protein [3]): greatly increases
- mRNA expression level of FAS (FAS mRNA): increased
- expression level of SREBP-1c (SREBP-1c protein [4]): greatly increases

SMILES: c1cc(-c2cnn3cc(-c4ccc(OCCN5CCCCC5)cc4)cnc23)ccn1 [Compound C]
- SREBP-1C expression inhibition due to MBX2982 upon AMPK inhibitor treatment (SREBP-1c; 3 μM MBX2982 plus Compound C): recovered
